From paper PMC8163145 (Chemical Science, 2020)

Tests used:
LHPP [1] = target: T1, LHPP (Homo sapiens, UniProt Q9H008); format: biochemical
T1 sequence (Q9H008 1-270): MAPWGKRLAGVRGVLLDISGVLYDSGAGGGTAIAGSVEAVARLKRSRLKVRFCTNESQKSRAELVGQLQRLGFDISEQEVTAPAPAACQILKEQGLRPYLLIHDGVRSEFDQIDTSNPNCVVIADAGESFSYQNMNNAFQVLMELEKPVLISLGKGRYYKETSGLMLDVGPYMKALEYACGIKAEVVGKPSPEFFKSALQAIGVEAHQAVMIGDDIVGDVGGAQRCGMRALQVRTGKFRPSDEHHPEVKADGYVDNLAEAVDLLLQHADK

[2] = 60 °C, neutral pH; cited from earlier work
LHPP [3] = conditions: pH 8.2, in the presence of 1 mM MgCl2; LHPP isolated from bovine liver; cited from earlier work

| SMILES | enzymatically hydrolyzed substrate (LHPP [1]; 100 μM 1a, 0.25 μg LHPP, 200 μL, after 60 minutes, background subtracted) | hydrolysis rate by LHPP (LHPP [1]; 100 μM substrate, 200 μL 50 mM Tris–HCl, 1 mM MgCl2, pH 7.8, 0.25 μg LHPP (0.037 μM)) [µmol/min/mg] | half-life time [2] | released phosphate (LHPP activity) (LHPP [3]) [µmol/min/mg] |
| --- | --- | --- | --- | --- |
| N[C@@H](CCCCNP(=O)(O)O)C(=O)O [Substrate 1a, N6-phosphono-L-lysine] | roughly 50% | 0.88 | less than 1 h |  |
| O=P(O)(O)OP(=O)(O)O [PPi, pyrophosphate] |  |  |  | 0.11 |
| O=P(O)(O)NP(=O)(O)O [PNP, imidodiphosphate] |  |  |  | 0.44 |
